“Also recorded” adds a separate entry of the source. Marks after values point to notes of the source that are not given here.
Legend:
[1] = tested on: post-reperfusion arrhythmia of isolated rat heart; assay: Antiarrhythmic activity in the post-reperfusion model in isolated rat heart; settings: for Extrasystoles (%) / Fibrillations (%) / Tachycardia (%) / Arrhythmia Severity Index: reperfusion; for Extrasystoles (%) / Fibrillations (%) / Tachycardia (%): % occurrence; for Arrhythmia Severity Index: Bernauer scale
Protocol: Hearts form Wistar rats were isolated and immersed in Chenoweth–Koelle solution (120 mM NaCl; 5 mM KCl; 2.2 mM MgCl2; […]; 2.4 mM CaCl2; 10 mM glucose). Hearts were perfused according to the Langendorff model under a constant pressure of 70 cm H2O (6.87 kPa) with a solution at 37 °C, pH 7.4, constantly oxygenated (O2/CO2, 19:1) using the MyoHEART Langendorff System-900MH (Danish Myo Technology, Hinnerup, Denmark), which monitored the ECG. After 20 min stabilization period, acute myocardial ischemia was induced locally by installing a clamp on the left coronary artery (ischemic period). After 15 min, the clamp was removed, and ECG changes were monitored for 30 min (reperfusion period). The tested compound was added to the perfusion solution 15 min before coronary artery clamping. The point scale described by Bernauer was used to assess the antiarrhythmic activity in this arrhythmia model. The occurrence of a specific type of heart rhythm disturbance during the reperfusion period was scored according to the following scale: • occurrence of less than 10 extrasystoles—1 point; • occurrence of more than 10 extrasystoles—2 points; • presence of ventricular tachycardia—3 points; • presence of fibrillation—4 points.

[2] = tested on: adrenaline-induced arrhythmia in rats; assay: Therapeutic antiarrhythmic activity in adrenaline-induced arrhythmia; format: in vivo, rat
Protocol: The experiments were carried out according to the method described by Szekeres and Papp. The heart rhythm disturbances were evoked by intravenous administration of adrenaline (20 µg/kg) to anesthetized rats (thiopental, 75 mg/kg). The tested compound was administered iv immediately after the injection of adrenaline, at dose 5 mg/kg. The ECG was recorded during the first 2 min and in the 5th, 10th, and 15th min after the adrenaline injection. […] The criterion of antiarrhythmic activity was the decrease or complete absence of extrasystoles, atrioventricular blocks and bradycardia in the ECG recording in comparison with the control group.

[3] = tested on: adrenaline-induced arrhythmia in rats; assay: Prophylactic antiarrhythmic activity in adrenaline-induced arrhythmia; format: in vivo, rat; settings: for ED50: Rattus norvegicus, prophylactic, iv 15 min before adrenaline 20 μg/kg, Litchfield and Wilcoxon, limits in brackets, read-out: ED50 (a dose producing a 50% inhibition of ventricular contractions); for Blocks (%) / Bradycardia (%) / Extrasystoles (%) / Mortality (%): adrenaline 20 μg/kg iv, % occurrence
[4] = target: Ca2+ channel (L, verapamil site); assay: Radioligand binding assay for Ca2+ channel ([3H]-D888); parameters: species or system rat; settings: for IC50: rat cortex tissue, [3H]-D888
Protocol: The radioligand binding studies for K^+ and Ca^2+ channels were performed commercially by Eurofins Cerep (Celle l’Evescault, France) using testing procedures described elsewhere. […]

[5] = tested on: aconitine-induced arrhythmia in rats; assay: Prophylactic antiarrhythmic activity in aconitine-induced arrhythmia; format: in vivo, rat
[6] = target: α1B receptor; parameters: method as in PMID 25813897; settings: antagonist; cited from earlier work
[7] = tested on: normal ECG in rats; assay: Effect on normal electrocardiogram in rats; format: in vivo, rat; parameters: PQ / QRS / QTc / QT / Rate (heart rate): unit not given here; settings: 5 mg/kg iv; for QTc: Bazzett's formula
Protocol: To eliminate the influence of the tested derivative on normal electrocardiogram (ECG), the experiment was performed. ECG tests were carried out with Aspel ASCARD apparatus (standard II lead, with the tape speed 50 mm/s and voltage calibration 1 Mv = 1 cm). The ECG was recorded prior and 5, 10, 15 min after iv administration of tested compound. The influence on PQ, QT, QTc interval, QRS complex and heart rate (RR) was defined. The Bazzett’s formula: QTc = QT/√RR was used to calculate QTc.

[8] = target: T1, β1-adrenergic receptors (Rattus norvegicus, UniProt P18090); assay: Radioligand binding assay for β1-adrenergic receptors ([3H]-CGP-12177); settings: rat cortex tissue
T1 construct: from tissue; host or cells: rat cortex
T1 sequence (P18090 whole entry): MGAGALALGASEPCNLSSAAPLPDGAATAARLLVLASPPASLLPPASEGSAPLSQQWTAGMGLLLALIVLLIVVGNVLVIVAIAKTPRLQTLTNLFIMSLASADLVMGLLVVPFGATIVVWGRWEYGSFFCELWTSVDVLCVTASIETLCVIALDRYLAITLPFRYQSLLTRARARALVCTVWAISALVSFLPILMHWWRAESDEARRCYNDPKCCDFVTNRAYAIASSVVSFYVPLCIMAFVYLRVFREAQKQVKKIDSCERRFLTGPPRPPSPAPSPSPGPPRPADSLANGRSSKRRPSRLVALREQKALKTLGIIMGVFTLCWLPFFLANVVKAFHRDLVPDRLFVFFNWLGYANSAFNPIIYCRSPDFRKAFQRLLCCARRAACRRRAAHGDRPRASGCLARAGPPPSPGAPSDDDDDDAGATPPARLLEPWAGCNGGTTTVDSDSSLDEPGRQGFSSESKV
Protocol: Radioligand binding assay was performed on tissue rat cortex. […] In order to measure the unspecific binding 1 μM of propranolol was applied. Microplate was covered with a sealing tape, mixed and incubated for 60 minutes at 37 °C. The incubation was terminated by rapid filtration through GF/B filter mate. Ten rapid washes with 200 µL 50 mM Tris buffer (4 °C, pH 7.6) were completed using 96-well FilterMate harvester (PerkinElmer, Boston, MA, USA). The filter mates were dried at 37 °C in forced air fan incubator and then solid scintillator MeltiLex was melted on filter mates at 90 °C for 4 min. […] Data were fitted to a one-site curve-fitting equation with Prism 6 (GraphPad Software, San Diego, CA, USA) and Ki values were estimated from the Cheng−Prusoff equation [51].

[9] = target: T2, potassium hERG channel (Homo sapiens, UniProt Q12809); assay: Radioligand binding assay for K+ channel hERG ([3H]-dofetilide, HEK-293 cells)
T2 construct: host or cells: HEK-293
T2 sequence (Q12809 whole entry): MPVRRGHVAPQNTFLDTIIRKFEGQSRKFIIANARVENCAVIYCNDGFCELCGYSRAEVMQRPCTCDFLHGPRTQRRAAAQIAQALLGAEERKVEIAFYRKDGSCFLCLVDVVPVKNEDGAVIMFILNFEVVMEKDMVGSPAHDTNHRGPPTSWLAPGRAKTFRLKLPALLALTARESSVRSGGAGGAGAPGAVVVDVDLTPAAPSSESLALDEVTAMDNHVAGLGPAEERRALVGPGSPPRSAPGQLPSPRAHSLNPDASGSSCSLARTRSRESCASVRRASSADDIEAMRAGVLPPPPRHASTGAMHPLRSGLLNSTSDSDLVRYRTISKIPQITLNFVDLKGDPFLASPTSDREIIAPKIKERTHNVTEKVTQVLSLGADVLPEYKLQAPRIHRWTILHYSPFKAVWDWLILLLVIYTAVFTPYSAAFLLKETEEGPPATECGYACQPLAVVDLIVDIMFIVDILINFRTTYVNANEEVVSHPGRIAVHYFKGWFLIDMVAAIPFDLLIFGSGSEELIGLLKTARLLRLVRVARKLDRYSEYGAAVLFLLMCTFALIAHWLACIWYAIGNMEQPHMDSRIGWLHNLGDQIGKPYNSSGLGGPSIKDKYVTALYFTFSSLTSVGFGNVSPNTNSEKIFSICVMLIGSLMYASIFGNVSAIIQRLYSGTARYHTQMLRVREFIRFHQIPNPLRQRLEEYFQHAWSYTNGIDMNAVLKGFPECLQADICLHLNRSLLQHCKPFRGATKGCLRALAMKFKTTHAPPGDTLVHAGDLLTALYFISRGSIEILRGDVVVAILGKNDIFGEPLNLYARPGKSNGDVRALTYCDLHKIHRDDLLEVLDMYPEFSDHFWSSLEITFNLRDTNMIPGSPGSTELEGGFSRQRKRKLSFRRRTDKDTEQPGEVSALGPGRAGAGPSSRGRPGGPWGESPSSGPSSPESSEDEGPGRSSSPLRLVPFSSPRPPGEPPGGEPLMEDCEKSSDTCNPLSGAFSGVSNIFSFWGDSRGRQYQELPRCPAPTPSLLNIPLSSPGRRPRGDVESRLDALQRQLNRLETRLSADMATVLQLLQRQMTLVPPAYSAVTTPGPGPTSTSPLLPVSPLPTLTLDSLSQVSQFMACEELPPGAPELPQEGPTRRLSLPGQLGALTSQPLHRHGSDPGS
Protocol: The radioligand binding studies for K^+ and Ca^2+ channels were performed commercially by Eurofins Cerep (Celle l’Evescault, France) using testing procedures described elsewhere [68, 69].

[10] = tested on: calcium chloride-induced arrhythmia in rats; assay: Prophylactic antiarrhythmic activity in calcium chloride-induced arrhythmia; format: in vivo, rat
[11] = target: α1 receptors; parameters: method as in PMID 25813897; settings: cited from earlier work
[12] = tested on: isolated rat heart; assay: Effect on normal ECG of isolated rat heart (Langendorff)
Protocol: Hearts form Wistar rats were isolated and immersed in Chenoweth-Koelle solution (120 mM NaCl; 5 mM KCl; 2.2 mM MgCl2; […]; 2.4 mM CaCl2; 10 mM glucose). Hearts were perfused according to the Langendorff model under a constant pressure of 70 cm H2O (6.87 kPa) with a solution at 37 °C, pH 7.4, constantly oxygenated (O2/CO2, 19:1) using the MyoHEART Langendorff System-900MH (Danish Myo Technology, Hinnerup, Denmark), which simultaneously monitored the ECG. After 20-min stabilization period, the tested compound was administered directly to the nutrient fluid every 15 min at increasing concentrations of […]. The influence on PQ, QTc interval, QRS complex and heart rate (RR) was assessed. The Bazzett’s formula: QTc = QT/√RR was used to calculate QTc.

[13] = target: α2 receptors; parameters: method as in PMID 25813897; settings: cited from earlier work
[14] = target: α1A receptor; parameters: method as in PMID 25813897; settings: antagonist; cited from earlier work
[15] = tested on: blood pressure in normotensive rats; parameters: method as in PMID 25813897; settings: doses 5, 1, and 0.5 mg/kg; cited from earlier work
[16] = tested on: isolated ischemic rat hearts; parameters: method as in PMID 9228191; settings: cited from earlier work
[17] = tested on: arrhythmia caused by cardiac ischemia in dogs; parameters: method as in PMID 7528295; settings: dogs after myocardial infarction; cited from earlier work
[18] = 5 mg/kg iv immediately after adrenaline, % occurrence
[19] = dose 0.25 mg/kg iv 15 min before
[20] = aconitine 20 μg/kg iv, dose 5 mg/kg iv 15 min before, % occurrence
[21] = 0 min (prior to administration)
[22] = calcium chloride 140 mg/kg iv, dose 5 mg/kg iv 15 min before, % occurrence
[23] = dose 0.03 mg/kg iv 15 min before
[24] = dose 0.06 mg/kg iv 15 min before
[25] = dose 0.125 mg/kg iv 15 min before
[26] = dose 0.5 mg/kg iv 15 min before

SMILES: CCCCc1oc2ccccc2c1C(=O)c1cc(I)c(OCCN(CC)CC)c(I)c1 [Amiodarone]
- Extrasystoles (%) ([1]; concentration 10^−9 M): 100%
- Fibrillations (%) ([1]; concentration 10^−9 M): 66.7%
- Tachycardia (%) ([1]; concentration 10^−9 M): 100%
- Arrhythmia Severity Index ([1]; concentration 10^−9 M): 7.7

SMILES: COc1ccccc1OCCNCC(O)COc1cccc2[nH]c3ccccc3c12 (centres unmarked) [Carvedilol, reference compound]
- decrease of the number of adrenaline-induced extrasystoles ([2]; 5 mg/kg iv immediately after adrenaline 20 µg/kg, compared to the vehicle-treated group): 95.2%
- Blocks (%) [2, 18]: 83.3%
- Mortality (%) [2, 18]: 16.7%
- ED50 [3]: 0.36 mg/kg
- Blocks (%) [3, 19]: 100%
- Bradycardia (%) [3, 19]: 16.6%
- Extrasystoles (%) [3, 19]: 100%
- Mortality (%) [3, 19]: 66.7%

SMILES: COc1ccc(CCN(C)CCCC(C#N)(c2cc(OC)c(OC)c(OC)c2)C(C)C)cc1OC [D-600, reference compound]
- IC50 [4]: 0.037 µM

SMILES: CCCNCC(O)COc1ccccc1C(=O)CCc1ccccc1 (centres unmarked) [Propafenone, reference compound]
- Blocks (%) ([5]; rat, in vivo, 5 mg/kg): 83.3%
- Bradycardia (%) ([5]; rat, in vivo, 5 mg/kg): 100%
- Extrasystoles (%) ([5]; rat, in vivo, 5 mg/kg): 66.7%
- Fibrillations (%) ([5]; rat, in vivo, 5 mg/kg): 33.3%
- Mortality (%) ([5]; rat, in vivo, 5 mg/kg): 16.6%
- Extrasystoles (%) ([1]; concentration 10^−11 M): 100%
- Fibrillations (%) ([1]; concentration 10^−11 M): 33.3%
- Tachycardia (%) ([1]; concentration 10^−11 M): 66.7%
- Arrhythmia Severity Index ([1]; concentration 10^−11 M): 6.7

SMILES: C=C[C@H]1C[N@@]2CC[C@H]1C[C@@H]2[C@@H](O)c1ccnc2ccc(OC)cc12 [Quinidine]
- Extrasystoles (%) ([1]; concentration 10^−6 M): 83.3%
- Fibrillations (%) ([1]; concentration 10^−6 M): 0%
- Tachycardia (%) ([1]; concentration 10^−6 M): 50%
- Arrhythmia Severity Index ([1]; concentration 10^−6 M): 2.3 *

SMILES: Cl.O=C1CCCN1CCCCN1CCN(c2ccccc2Cl)CC1 [S-75, 1-(4-(4-(2-chlorophenyl)piperazin-1-yl)butyl)pyrrolidin-2-one hydrochloride]
- EC50 [6]: 2.53 ± 0.5 nM
- Blocks (%) [5, 20]: 100%
- Bradycardia (%) [5, 20]: 100%
- Extrasystoles (%) [5, 20]: 100%
- Fibrillations (%) [5, 20]: 100%
- Mortality (%) [5, 20]: 100%
- activity in aconitine-induced arrhythmia ([5]; prophylactic, rats): no activity
- influence on QRS [7]: no influence
- influence on QT [7]: no influence
- influence on QTc [7]: no influence; also recorded: did not prolong
- PQ [7, 21]: 46.44 ± 1.352
- QRS [7, 21]: 33.78 ± 1.384
- QT [7, 21]: 81.57 ± 1.356
- Rate (heart rate) [7, 21]: 310.8 ± 17.07
- QTc [7, 21]: 182.9 ± 4.805
- PQ ([7]; 5 min): 47.00 ± 1.537
- QRS ([7]; 5 min): 35.56 ± 1.701
- QT ([7]; 5 min): 81.53 ± 1.812
- Rate (heart rate) ([7]; 5 min): 307.9 ± 18.93
- QTc ([7]; 5 min): 192.3 ± 6.176
- PQ ([7]; 10 min): 49.78 ± 1.042
- QRS ([7]; 10 min): 33.89 ± 1.628
- QT ([7]; 10 min): 82.47 ± 2.186
- Rate (heart rate) ([7]; 10 min): 287.8 ± 22.94
- QTc ([7]; 10 min): 189.3 ± 9.543
- PQ ([7]; 15 min): 52.11 ± 2.061
- QRS ([7]; 15 min): 37.22 ± 1.637
- QT ([7]; 15 min): 83.90 ± 1.730
- Rate (heart rate) ([7]; 15 min): 284.0 ± 23.50
- QTc ([7]; 15 min): 190.9 ± 11.46
- decrease of the heart rate ([7]; after 10 min): 7.4%
- decrease of the heart rate ([7]; after 15 min): 8.6%
- prolongation of the PQ interval ([7]; after 15 min): 12.2%
- activity in the post-reperfusion model of arrhythmia [1]: did not show the activity
- Extrasystoles (%) ([1]; concentration 10^−10 M): 100%
- Fibrillations (%) ([1]; concentration 10^−10 M): 100%
- Tachycardia (%) ([1]; concentration 10^−10 M): 100%
- β1 (pKi [nM]) [8]: did not bind
- IC50 ([9]; HEK-293 cells, [3H]-dofetilide): 29.3 µM
- affinity toward potassium channel hERG, times lower than terfenadine ([9]; vs terfenadine): 1172 times
- Blocks (%) [10, 22]: 100%
- Bradycardia (%) [10, 22]: 100%
- Extrasystoles (%) [10, 22]: 100%
- Fibrillations (%) [10, 22]: 66.7%
- Mortality (%) [10, 22]: 83.3%
- activity in calcium chloride-induced arrhythmia ([10]; prophylactic, rats): no activity
- pKi α1 receptors [11]: 7.3
- IC50 [4]: 0.757 µM
- affinity for L-type calcium channels, times lower than D-600 ([4]; vs reference D-600): 20 times
- prolongation of the PQ interval ([12]; 10^−8 mol/L): 15.1%
- prolongation of the RR interval ([12]; 10^−8 mol/L): 10.5%
- effect on QRS complex ([12]; 10^−10–10^−8 mol/L): not affecting; also recorded: did not affect
- effect on QTc interval ([12]; 10^−10–10^−8 mol/L): not affecting; also recorded: did not affect
- pKi α2 receptors [13]: 6.01
- ED50 [3]: 0.05 mg/kg
- Blocks (%) [3, 23]: 100%
- Bradycardia (%) [3, 23]: 100%
- Extrasystoles (%) [3, 23]: 100%
- Mortality (%) [3, 23]: 33.3%
- Blocks (%) [3, 24]: 50%
- Bradycardia (%) [3, 24]: 100%
- Extrasystoles (%) [3, 24]: 83.3%
- Mortality (%) [3, 24]: 0%
- Blocks (%) [3, 25]: 33.3%
- Bradycardia (%) [3, 25]: 33.3%
- Extrasystoles (%) [3, 25]: 66.7%
- Mortality (%) [3, 25]: 50%
- Blocks (%) [3, 19]: 50%
- Bradycardia (%) [3, 19]: 16.7%
- Extrasystoles (%) [3, 19]: 66.7%
- Mortality (%) [3, 19]: 0%
- Blocks (%) [3, 26]: 33.3%
- Bradycardia (%) [3, 26]: 0%
- Extrasystoles (%) [3, 26]: 16.7%
- Mortality (%) [3, 26]: 0%
- EC50 [14]: 138 ± 21.9 nM
- effect on blood pressure [15]: significantly decreased the blood pressure

SMILES: COc1cccc(OC)c1OCCNCC1COc2ccccc2O1 (centres unmarked) [WB 4101]
- reduction of the incidence of ventricular fibrillation / arrhythmias [16]: 49%

SMILES: Cc1ccc(N(CC2=NCCN2)c2cccc(O)c2)cc1 [phentolamine]
- reduction of the incidence of ventricular fibrillation / arrhythmias [16]: 32%

SMILES: COc1cc2nc(N3CCN(C(=O)c4ccco4)CC3)nc(N)c2cc1OC [prazosin]
- reduction of the incidence of ventricular fibrillation / arrhythmias [16]: 83%
- animals in which arrhythmia caused by cardiac ischemia was prevented [17]: 78%
